Non-standard residues stand in square brackets, D forms with d. No end group written: not given here. *: point of attachment. Acetyl(2-naphthyl) = O=C(Cc1ccc2ccccc2c1)*; 1Nal = N[C@@H](Cc1cccc2ccccc12)C(=O)O; 2Nal = N[C@@H](Cc1ccc2ccccc2c1)C(=O)O; Nle = CCCC[C@H](N)C(=O)O
Key:
MC4-R = target: T1, MC4-R (Homo sapiens, UniProt P32245); assay: Competitive binding assay: inhibition of 125I-NDP-α-MSH binding to HEK-293 membranes with cloned human receptor subtype 4; conditions: Table 6, mean of triplicate
T1 construct: expressed in transfected cells; host or cells: HEK-293
T1 sequence (P32245 whole entry): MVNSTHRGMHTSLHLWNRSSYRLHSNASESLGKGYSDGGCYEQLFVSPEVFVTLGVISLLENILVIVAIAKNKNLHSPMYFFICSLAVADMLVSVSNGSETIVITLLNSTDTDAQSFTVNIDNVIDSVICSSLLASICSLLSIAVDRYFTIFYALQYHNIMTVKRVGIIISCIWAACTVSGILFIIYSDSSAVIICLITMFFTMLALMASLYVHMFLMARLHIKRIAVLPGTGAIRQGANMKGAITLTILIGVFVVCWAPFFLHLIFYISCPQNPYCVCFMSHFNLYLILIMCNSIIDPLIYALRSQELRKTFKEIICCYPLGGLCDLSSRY
Outline: (§1)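 Membranes: B16-F10 mouse melanoma (MC1-R) or HEK-293 expressing cloned human subtypes. Radioligand 125I-NDP-α-MSH; NSB with 1 μM α-MSH; metallopeptide at chosen concentration; readout % inhibition of specific binding.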

hMC2-R = target: T2, hMC2-R (Homo sapiens, UniProt P41968); assay: Competitive binding assay of additional compounds, Table 6 hMC2-R; conditions: 1 μM, mean of triplicate
T2 construct: expressed in transfected cells; host or cells: HEK-293
T2 sequence (P41968 whole entry): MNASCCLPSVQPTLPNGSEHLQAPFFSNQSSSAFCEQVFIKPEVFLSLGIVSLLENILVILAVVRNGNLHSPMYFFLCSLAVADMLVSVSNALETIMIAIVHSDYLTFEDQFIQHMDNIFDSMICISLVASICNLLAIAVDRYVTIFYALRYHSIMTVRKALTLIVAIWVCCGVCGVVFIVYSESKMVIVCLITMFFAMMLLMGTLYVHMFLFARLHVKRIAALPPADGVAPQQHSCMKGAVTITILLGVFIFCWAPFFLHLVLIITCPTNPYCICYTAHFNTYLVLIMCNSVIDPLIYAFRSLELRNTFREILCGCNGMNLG

hMC5-R = target: T3, hMC5-R (Homo sapiens, UniProt P33032); assay: Competitive binding assay: inhibition of 125I-NDP-α-MSH binding to HEK-293 membranes with cloned human receptor subtype 5; conditions: Table 6; 1 μM; mean of triplicate
T3 construct: expressed in transfected cells; host or cells: HEK-293
T3 sequence (P33032 whole entry): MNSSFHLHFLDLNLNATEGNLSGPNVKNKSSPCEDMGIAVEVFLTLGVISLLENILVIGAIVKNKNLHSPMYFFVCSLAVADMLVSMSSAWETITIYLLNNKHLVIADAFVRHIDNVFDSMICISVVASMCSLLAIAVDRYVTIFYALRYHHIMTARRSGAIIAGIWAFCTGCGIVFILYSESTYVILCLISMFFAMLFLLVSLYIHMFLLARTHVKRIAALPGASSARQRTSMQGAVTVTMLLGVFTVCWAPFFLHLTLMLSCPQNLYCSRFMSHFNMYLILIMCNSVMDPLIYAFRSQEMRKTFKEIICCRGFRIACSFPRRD
Procedure: Rhenium-complexed metallopeptides of the formulas given in Table 1 were prepared, with the metallopeptides complexed with rhenium using the rhenium transfer agent ReOCl3(PPh3)2 in the presence of 1,8-Diazabicyclo[5,4,0] undec-7-ene as a base, as disclosed in International Application PCT/US00/16396, filed Jun. 14, 2000, Melanocortin Metallopeptide Constructs, Combinatorial Libraries and Applications, incorporated by reference herein. Affinities of compounds were measured using membranes from HEK-293 cells containing cloned human melanocortin receptor subtypes 3, 4 and 5. MC1-R membranes were isolated from B16—F10 mouse melanoma cells. The assay tube also contained a chosen concentration of the test peptide of this invention, complexed to a rhenium metal ion as indicated, for determining its efficacy in inhibiting the binding of ^125I-NDP-α-MSH to its receptor. Non-specific binding was measured by complete inhibition of binding of ^125I-NDP-α-MSH in the assay with the presence of 1 μM α-MSH. 100% specific binding was defined as the difference in radioactivity (cpm) bound to cell membranes in the absence and presence of 1 μM α-MSH. The cpm obtained in presence of test compounds were normalized with respect to 100% specific binding to determine the percent inhibition of ^125I-NDP-α-MSH binding.
Peptide sequences set forth in Table 6 were prepared using conventional synthetic means. The resulting sequences were rhenium-complexed to form metallopeptides, with the metallopeptides complexed with rhenium using the rhenium transfer agent ReOCl3(PPh3)2 in the presence of 1,8-Diazabicyclo[5,4,0] undec-7-ene as a base. Percent inhibition was determined as in Example 1 using the Re-complexed metallopeptides, using the same methods as described therein. All measures are means of triplicate determinations.

MC1-R = target: T4, MC1-R (Mus musculus, UniProt Q01727); assay: Competitive binding assay: inhibition of 125I-NDP-α-MSH binding to membranes from B16-F10 mouse melanoma cells; conditions: Table 6, mean of triplicate
T4 construct: MC1-R membranes were isolated from B16—F10 mouse melanoma cells; endogenous in cells; host or cells: B16-F10 mouse melanoma cells
T4 sequence (Q01727 whole entry): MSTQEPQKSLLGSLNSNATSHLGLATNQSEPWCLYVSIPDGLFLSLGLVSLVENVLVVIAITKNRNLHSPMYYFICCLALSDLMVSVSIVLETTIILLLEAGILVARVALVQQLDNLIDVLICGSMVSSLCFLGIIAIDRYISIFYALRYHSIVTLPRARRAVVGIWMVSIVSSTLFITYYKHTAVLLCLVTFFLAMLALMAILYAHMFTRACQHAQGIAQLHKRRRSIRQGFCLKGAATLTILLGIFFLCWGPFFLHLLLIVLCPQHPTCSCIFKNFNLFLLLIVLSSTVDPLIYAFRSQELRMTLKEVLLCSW
Outline: as §1

Substance | % Inhibition of Binding hMC4-R (MC4-R; 1 μM) | % Inhibition of Binding hMC2-R (hMC2-R) | % Inhibition of Binding hMC5-R (hMC5-R) | % Inhibition of Binding MC1-R (MC1-R; 1 μM) | % Inhibition of Binding hMC4-R (MC4-R; 0.1 μM) | % Inhibition of Binding hMC2-R (hMC2-R; listed as NH2(CH2)6CO-Ser(Bzl)-D-Phe(4′-Cl)-Arg-Trp-Cys-NH2, 1 µM) | % Inhibition of Binding MC1-R (MC1-R; 0.1 μM)
Ac-[Nle]AW[dF]RCW-NH2 | 9% | 0% | 62% | 45% | – | – | –
Ac-[Nle]AY[dF]RCW-NH2 | 0% | 0% | 44% | 66% | – | – | –
Ac-[Nle]H[dF]RCW-NH2 | 2% | 0% | 28% | 77% | – | – | –
Aic-D-Phe-Arg-Cys-Trp-NH2 | 21% | 0% | 71% | 59% | – | – | –
Aic-D-Phe-Arg-Trp-Cys-NH2 | 18% | 4% | 38% | 9% | – | – | –
Allo-Thr-D-Phe-Arg-Trp-Cys-NH2 | 22% | 0% | 2% | 28% | – | – | –
Amb-D-Phe-Arg-Cys-Trp-NH2 | 0% | 0% | 1% | 39% | – | – | –
Amb-D-Phe-Arg-Trp-Cys-NH2 | 0% | 0% | 5% | 39% | – | – | –
Amc-D-Phe-Arg-Cys-Trp-NH2 | 4% | 0% | 8% | 7% | – | – | –
D-Igl-D-Nal 2′-Arg-Cys-NH2 | 8% | 1% | 41% | 0% | – | – | –
D-Igl-D-Nal 2′-Arg-Trp-Cys-NH2 | 97% | 73% | 85% | 27% | – | – | –
D-Nal 1′-D-Phe-Arg-Cys-Trp-NH2 | 8% | 0% | 48% | 22% | – | – | –
D-Nal 1′-D-Phe-Arg-Trp-Cys-NH2 | 13% | 0% | 43% | 3% | – | – | –
D-Nal 2′-D-Phe-Arg-Cys-Trp-NH2 | 0% | 7% | 52% | 50% | – | – | –
D-Nal 2′-D-Phe-Arg-Trp-Cys-NH2 | 5% | 0% | 13% | 11% | – | – | –
D-Tiq-D-Phe-Arg-Cys-Trp-NH2 | 13% | 3% | 39% | 43% | – | – | –

Substance | % Inhibition of Binding hMC4-R (MC4-R; 1 μM) | % Inhibition of Binding hMC2-R (hMC2-R) | % Inhibition of Binding hMC5-R (hMC5-R) | % Inhibition of Binding MC1-R (MC1-R; 1 μM) | % Inhibition of Binding hMC4-R (MC4-R; 0.1 μM) | % Inhibition of Binding hMC2-R (hMC2-R; listed as NH2(CH2)6CO-Ser(Bzl)-D-Phe(4′-Cl)-Arg-Trp-Cys-NH2, 1 µM) | % Inhibition of Binding MC1-R (MC1-R; 0.1 μM)
D-Tiq-D-Phe-Arg-Trp-Cys-NH2 | 34% | 0% | 23% | 5% | – | – | –
Hept-Ser(Bzl)-D-Phe(4′-Cl)-Arg-D-Trp-Cys-NH2 | 62% | 37% | 79% | 24% | – | – | –
Hept-Ser(Bzl)-D-Phe(4′-Cl)-Arg-Trp-Cys-NH2 | 88% | 85% | 100% | 85% | – | – | –
Idc-D-Phe-Arg-Cys-Trp-NH2 | 4% | 0% | 19% | 0% | – | – | –
Idc-D-Phe-Arg-Trp-Cys-NH2 | 11% | 0% | 0% | 12% | – | – | –
NH2(CH2)6CO-Ser(Bzl)-D-Nal 2′-Arg-Trp-Cys-NH2 | 96% | 69% | 95% | 14% | – | – | –
NH2-(CH2)6-CO-Ser(Bzl)-D-Nal 2′-Arg-Nal 2′-Cys-NH2 | 95% | 70% | 100% | 22% | – | – | –
NH2-(CH2)6-CO-Ser(Bzl)-D-Phe(4′-Cl)-Arg-Trp-Cys-NH2 | 94% | 90% | 100% | 74% | 68% | 87% | 28%
Nal 1′-D-Phe-Arg-Cys-Trp-NH2 ([1Nal][dF]RCW-NH2; also: metal complex) | 12% | 6% | 45% | 0% | – | – | –
Nal 1′-D-Phe-Arg-Trp-Cys-NH2 ([1Nal][dF]RWC-NH2; also: metal complex) | 15% | 3% | 68% | 11% | – | – | –
Nal 2′-D-Phe-Arg-Cys-Trp-NH2 ([2Nal][dF]RCW-NH2; also: metal complex) | 21% | 13% | 63% | 39% | – | – | –
Nal 2′-D-Phe-Arg-Trp-Cys-NH2 ([2Nal][dF]RWC-NH2; also: metal complex) | 20% | 0% | 62% | 8% | – | – | –
Naphthlyl-2-acetyl-D-Phe-Arg-Cys-Trp-NH2 ({Acetyl(2-naphthyl)}-[dF]RCW-NH2; also: metal complex) | 0% | 0% | 56% | 7% | – | – | –
Pro-D-Phe-Arg-Cys-Trp-NH2 (P[dF]RCW-NH2; also: metal complex) | 2% | 0% | 33% | 27% | – | – | –
Pro-D-Phe-Arg-Trp-Cys-NH2 (P[dF]RWC-NH2; also: metal complex) | 14% | 0% | 0% | 39% | – | – | –

Source: US7307063B2, “Melanocortin metallopeptides for treatment of sexual dysfunction” (Palatin Technologies, Inc., priority 2001, dated 2007)
